Square brackets hold non-standard residues; d marks the D form. Peptide text beside a SMILES is read from it. Aib = CC(C)(N)C(=O)O
Assays:
human GLP-2 receptor = biological target: T1, human GLP-2 receptor (Homo sapiens, UniProt O95838, D470N); experiment: GLP-2 receptor potency assay (cAMP AlphaScreen, HEK293 cells stably expressing GLP-2R); assay type: cell-based; conditions: cAMP response, HEK293 cells expressing human GLP-2R
T1 sequence (O95838 1-553 D470N): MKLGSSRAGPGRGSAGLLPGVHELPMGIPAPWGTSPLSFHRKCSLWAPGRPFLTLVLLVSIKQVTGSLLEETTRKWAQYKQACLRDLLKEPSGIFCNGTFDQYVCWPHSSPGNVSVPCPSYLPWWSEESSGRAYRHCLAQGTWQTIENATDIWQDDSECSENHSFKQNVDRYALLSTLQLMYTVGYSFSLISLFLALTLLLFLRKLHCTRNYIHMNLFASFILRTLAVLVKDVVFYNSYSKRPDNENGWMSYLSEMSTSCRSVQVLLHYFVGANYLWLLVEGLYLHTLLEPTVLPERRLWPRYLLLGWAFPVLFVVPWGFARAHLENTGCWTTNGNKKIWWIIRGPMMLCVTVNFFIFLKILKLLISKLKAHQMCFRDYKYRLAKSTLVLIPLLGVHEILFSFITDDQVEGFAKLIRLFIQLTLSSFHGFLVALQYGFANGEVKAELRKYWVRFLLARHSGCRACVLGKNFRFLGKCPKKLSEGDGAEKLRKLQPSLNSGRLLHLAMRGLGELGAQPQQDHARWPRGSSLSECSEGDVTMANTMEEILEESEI
Text: (§1) One useful in vitro assay for measuring GLP-1 and GLP-2 receptor activity is quantitation of cAMP, i.e. 3′-5′-cyclic adenosine monophosphate, which is a second messenger essential in many biological processes, and one of the most ubiquitous mechanisms for regulating cellular functions. […] Test compounds eliciting an increase in the intracellular level of cAMP can be tested in these assays, and the response normalized relative to a positive and negative control (vehicle) to calculate the EC50 and maximal response from the concentration response curve using the 4-parameter logistic (4PL) nonlinear model for curve fitting.
The hGLP2-R was purchased from MRC-geneservice, Babraham, Cambridge as an Image clone: 5363415 (11924-I17). For subcloning into a mammalian expression vector, primers for subcloning were obtained from DNA-Technology, Risskov, Denmark. The 5′ and 3′ primers used for the PCR reaction include terminal restriction sites for cloning and the context of the 5′ primer is modified to a Kozak consensus without changing the sequence of the product encoded by the ORF. A standard PCR reaction was run using Image clone 5363415 (11924-117) as a template with the above mentioned primers and Polymerase Herculase II Fusion in a total vol. of 50 μl. The generated PCR product was purified using GFX PCR and Gel band purification kit, digested with restriction enzymes and cloned into the mammalian expression vector using Rapid DNA Ligation Kit. Ligation reaction was transformed to XL10 Gold Ultracompetent cells and colonies were picked for DNA production using Endofree Plasmid maxi kit. Subsequent sequence analysis was conducted by MWG Eurofins, Germany.
HEK293 cells were transfected using the Lipofectamine PLUS transfection method. The day before transfection, HEK293 cells were seeded in two T75 flasks at a density of 2×10^6 cells/T75 flask in cell culturing medium without antibiotics. On the day of transfection, cells were washed with 1×DPBS and medium was replaced with Optimem to a volume of 5 mL/T75 flask before addition of Lipofectamine-plasmid complexes were added gently and drop wise to the cells in T75 flasks and replaced with growth medium after 3 hours and again to growth medium supplemented with 500 μg/mL G418 after 24 hours. Following 4 weeks in G418 selection, clones were picked and tested in a functional GLP-2 receptor potency assay as described below.
(§2) The cAMP AlphaScreen assay from Perkin Elmer was used to quantitate the cAMP response to activation of the GLP1 and GLP2 receptor, respectively. […] Data from test compounds eliciting an increase in the intracellular level of cAMP were normalized relative to the positive and negative control (vehicle) to calculate the EC50 and maximal response from the concentration response curve.

human GLP-1 receptor = biological target: T2, human GLP-1 receptor (Homo sapiens, UniProt P43220); experiment: GLP-1 receptor potency assay (cAMP AlphaScreen, HEK293 cells stably expressing GLP-1R); assay type: cell-based; conditions: cAMP response, HEK293 cells expressing human GLP-1R; read-out: EC50 GLP-1
T2 construct: expressed in transfected cells
Text: as §1
The cDNA encoding the human glucagon-like peptide 1 receptor (GLP-1R) (primary accession number P43220) was cloned from the cDNA BC112126 (MGC:138331/IMAGE:8327594). The DNA encoding the GLP-1-R was amplified by PCR using primers encoding terminal restriction sites for subcloning. The 5′-end primers additionally encoded a near Kozak consensus sequence to ensure efficient translation. […] The PCR products encoding the GLP-1-R were subcloned into a mammalian expression vector containing a neomycin (G418) resistance marker. The mammalian expression vectors encoding the GLP-1-R were transfected into HEK293 cells by a standard calcium phosphate transfection method. 48 hours post-transfection, cells were seeded for limited dilution cloning and selected with 1 mg/ml G418 in the culture medium. Following 3 weeks in G418 selection clones were picked and tested in a functional GLP-1 receptor potency assay as described below.
as §2

T2 sequence (P43220 24-463): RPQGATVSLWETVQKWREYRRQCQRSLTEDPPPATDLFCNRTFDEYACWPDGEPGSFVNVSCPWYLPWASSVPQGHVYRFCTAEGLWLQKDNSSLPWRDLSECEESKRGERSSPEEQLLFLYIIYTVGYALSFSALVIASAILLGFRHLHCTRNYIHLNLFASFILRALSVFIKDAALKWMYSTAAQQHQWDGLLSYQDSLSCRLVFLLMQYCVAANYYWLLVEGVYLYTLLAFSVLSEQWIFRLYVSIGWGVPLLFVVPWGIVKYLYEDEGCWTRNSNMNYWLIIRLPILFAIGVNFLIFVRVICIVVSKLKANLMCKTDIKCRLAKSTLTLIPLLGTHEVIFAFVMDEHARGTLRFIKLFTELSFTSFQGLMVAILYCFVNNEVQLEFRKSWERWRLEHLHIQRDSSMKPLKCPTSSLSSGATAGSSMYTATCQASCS

Compound	EC50 (human GLP-2 receptor)	EC50 (human GLP-1 receptor)
CC[C@H](C)[C@H](NC(=O)[C@H](CC(C)C)NC(=O)[C@H](Cc1c[nH]c2ccccc12)NC(=O)[C@H](C)NC(=O)[C@@H](NC(=O)[C@H](Cc1ccccc1)NC(=O)[C@H](CC(=O)O)NC(=O)[C@H](CCCNC(=N)N)NC(=O)[C@H](C)NC(=O)[C@H](C)NC(=O)[C@H](CCC(N)=O)NC(=O)[C@H](CCC(=O)O)NC(=O)[C@H](CC(=O)O)NC(=O)[C@H](CC(C)C)NC(=O)[C@@H](NC(=O)[C@@H](NC(=O)[C@H](C)NC(=O)[C@H](CC(C)C)NC(=O)[C@H](CCC(=O)O)NC(=O)[C@H](CO)NC(=O)[C@H](CO)NC(=O)[C@H](Cc1ccccc1)NC(=O)[C@@H](NC(=O)CNC(=O)[C@H](CCC(=O)O)NC(=O)C(C)(C)NC(=O)[C@@H](N)Cc1c[nH]cn1)[C@@H](C)O)[C@@H](C)O)[C@@H](C)CC)[C@@H](C)CC)C(=O)N[C@@H](C)C(=O)N[C@@H](Cc1c[nH]cn1)C(=O)N[C@@H](CCCCN)C(=O)N[C@H](C(=O)N[C@H](C(=O)N[C@@H](CC(=O)O)C(=O)O)[C@@H](C)O)[C@@H](C)CC [Compound 2] (H-H[Aib]EGTFSSELATILDEQAARDFIAWLIAHKITD-OH)	34 pM	46 pM
CC[C@H](C)[C@H](NC(=O)[C@H](CC(C)C)NC(=O)[C@H](Cc1c[nH]c2ccccc12)NC(=O)[C@H](C)NC(=O)[C@@H](NC(=O)[C@H](Cc1ccccc1)NC(=O)[C@H](CC(=O)O)NC(=O)[C@H](CCCNC(=N)N)NC(=O)[C@H](C)NC(=O)[C@H](C)NC(=O)[C@H](CCC(N)=O)NC(=O)[C@H](CCC(=O)O)NC(=O)[C@H](CC(=O)O)NC(=O)[C@H](CC(C)C)NC(=O)[C@@H](NC(=O)[C@@H](NC(=O)[C@H](C)NC(=O)[C@H](CC(C)C)NC(=O)[C@H](CCC(=O)O)NC(=O)[C@H](CC(=O)O)NC(=O)[C@@H](NC(=O)[C@H](Cc1ccccc1)NC(=O)[C@@H](NC(=O)CNC(=O)[C@H](CCC(=O)O)NC(=O)C(C)(C)NC(=O)[C@@H](N)Cc1c[nH]cn1)[C@@H](C)O)[C@@H](C)O)[C@@H](C)O)[C@@H](C)CC)[C@@H](C)CC)C(=O)N[C@@H](C)C(=O)N[C@@H](Cc1c[nH]cn1)C(=O)N[C@@H](CCCCN)C(=O)N[C@H](C(=O)N[C@H](C(=O)N[C@@H](CC(=O)O)C(=O)O)[C@@H](C)O)[C@@H](C)CC [Compound 9] (H-H[Aib]EGTFTDELATILDEQAARDFIAWLIAHKITD-OH)	41 pM	7 pM
CC[C@H](C)[C@H](NC(=O)[C@H](CC(C)C)NC(=O)[C@H](Cc1c[nH]c2ccccc12)NC(=O)[C@H](C)NC(=O)[C@@H](NC(=O)[C@H](Cc1ccccc1)NC(=O)[C@H](CC(=O)O)NC(=O)[C@H](CCCNC(=N)N)NC(=O)[C@H](C)NC(=O)[C@H](C)NC(=O)[C@H](CCC(N)=O)NC(=O)[C@H](CCC(=O)O)NC(=O)[C@H](CC(=O)O)NC(=O)[C@H](CC(C)C)NC(=O)[C@@H](NC(=O)[C@@H](NC(=O)[C@H](CO)NC(=O)[C@H](CC(C)C)NC(=O)[C@H](CCC(=O)O)NC(=O)[C@H](CO)NC(=O)[C@@H](NC(=O)[C@H](Cc1ccccc1)NC(=O)[C@@H](NC(=O)CNC(=O)[C@H](CCC(=O)O)NC(=O)C(C)(C)NC(=O)[C@@H](N)Cc1c[nH]cn1)[C@@H](C)O)[C@@H](C)O)[C@@H](C)O)[C@@H](C)CC)[C@@H](C)CC)C(=O)N[C@@H](C)C(=O)N[C@@H](Cc1c[nH]cn1)C(=O)N[C@@H](CCCCN)C(=O)N[C@H](C(=O)N[C@H](C(=O)N[C@@H](CC(=O)O)C(=O)O)[C@@H](C)O)[C@@H](C)CC [Compound 10] (H-H[Aib]EGTFTSELSTILDEQAARDFIAWLIAHKITD-OH)	50 pM	5 pM
CC[C@H](C)[C@H](NC(=O)[C@H](CC(C)C)NC(=O)[C@H](Cc1c[nH]c2ccccc12)NC(=O)[C@H](C)NC(=O)[C@@H](NC(=O)[C@H](Cc1ccccc1)NC(=O)[C@H](CC(=O)O)NC(=O)[C@H](CCCNC(=N)N)NC(=O)[C@H](C)NC(=O)[C@H](C)NC(=O)[C@H](CCCCN)NC(=O)CNC(=O)[C@H](CC(=O)O)NC(=O)[C@H](CC(C)C)NC(=O)[C@@H](NC(=O)[C@@H](NC(=O)[C@H](C)NC(=O)[C@H](CC(C)C)NC(=O)[C@H](CCC(=O)O)NC(=O)[C@H](CO)NC(=O)[C@@H](NC(=O)[C@H](Cc1ccccc1)NC(=O)[C@@H](NC(=O)CNC(=O)[C@H](CCC(=O)O)NC(=O)C(C)(C)NC(=O)[C@@H](N)Cc1c[nH]cn1)[C@@H](C)O)[C@@H](C)O)[C@@H](C)O)[C@@H](C)CC)[C@@H](C)CC)C(=O)N[C@@H](C)C(=O)N[C@@H](Cc1c[nH]cn1)C(=O)N[C@@H](CCCCN)C(=O)N[C@H](C(=O)N[C@H](C(=O)N[C@@H](CC(=O)O)C(=O)O)[C@@H](C)O)[C@@H](C)CC [Compound 11] (H-H[Aib]EGTFTSELATILDGKAARDFIAWLIAHKITD-OH)	85 pM	11 pM
CC[C@H](C)[C@H](NC(=O)[C@H](Cc1ccccc1)NC(=O)[C@H](CC(=O)O)NC(=O)[C@H](CCCNC(=N)N)NC(=O)[C@H](C)NC(=O)[C@H](C)NC(=O)[C@H](CCC(N)=O)NC(=O)[C@H](CCC(=O)O)NC(=O)[C@H](CC(=O)O)NC(=O)[C@H](CC(C)C)NC(=O)[C@@H](NC(=O)[C@@H](NC(=O)[C@H](C)NC(=O)[C@H](CC(C)C)NC(=O)[C@H](CCC(=O)O)NC(=O)[C@H](CO)NC(=O)[C@@H](NC(=O)[C@H](Cc1ccccc1)NC(=O)[C@@H](NC(=O)CNC(=O)[C@H](CCC(=O)O)NC(=O)C(C)(C)NC(=O)[C@@H](N)Cc1c[nH]cn1)[C@@H](C)O)[C@@H](C)O)[C@@H](C)O)[C@@H](C)CC)C(=O)N[C@@H](C)C(=O)N[C@@H](Cc1c[nH]c2ccccc12)C(=O)N[C@@H](CC(C)C)C(=O)N[C@@H](Cc1c[nH]cn1)C(=O)N[C@@H](C)C(=O)N[C@@H](Cc1c[nH]cn1)C(=O)N[C@@H](CCCCN)C(=O)N[C@H](C(=O)N[C@H](C(=O)N[C@@H](CC(=O)O)C(=O)O)[C@@H](C)O)[C@@H](C)CC [Compound 12] (H-H[Aib]EGTFTSELATILDEQAARDFIAWLHAHKITD-OH)	76 pM	55 pM
CC[C@H](C)[C@H](NC(=O)[C@H](Cc1ccccc1)NC(=O)[C@H](CC(=O)O)NC(=O)[C@H](CCCNC(=N)N)NC(=O)[C@H](C)NC(=O)[C@H](C)NC(=O)[C@H](CCC(N)=O)NC(=O)[C@H](CCC(=O)O)NC(=O)[C@H](CC(=O)O)NC(=O)[C@H](CC(C)C)NC(=O)[C@@H](NC(=O)[C@@H](NC(=O)[C@H](C)NC(=O)[C@H](CC(C)C)NC(=O)[C@H](CCC(=O)O)NC(=O)[C@H](CO)NC(=O)[C@@H](NC(=O)[C@H](Cc1ccccc1)NC(=O)[C@@H](NC(=O)CNC(=O)[C@H](CCC(=O)O)NC(=O)C(C)(C)NC(=O)[C@@H](N)Cc1c[nH]cn1)[C@@H](C)O)[C@@H](C)O)[C@@H](C)O)[C@@H](C)CC)C(=O)N[C@@H](C)C(=O)N[C@@H](Cc1c[nH]c2ccccc12)C(=O)N[C@@H](CC(C)C)C(=O)N[C@@H](CCC(N)=O)C(=O)N[C@@H](C)C(=O)N[C@@H](Cc1c[nH]cn1)C(=O)N[C@@H](CCCCN)C(=O)N[C@H](C(=O)N[C@H](C(=O)N[C@@H](CC(=O)O)C(=O)O)[C@@H](C)O)[C@@H](C)CC [Compound 13] (H-H[Aib]EGTFTSELATILDEQAARDFIAWLQAHKITD-OH)	83 pM	16 pM

— patent US11130793B2, “GLP-1/GLP-2 dual agonists” (Zealand Pharma A/S, priority 2016, dated 2021)
